Results: PubChem BioAssay AID248 (DTP/NCI, 2004)
Several values for one entry are separate records, joined by “and”; a condition that tells them apart may be missing. Equal values may be shown once. Inconclusive results and toxic doses are left out.

System: L1210 leukemia ip in BDF1 mice, survival T/C
Assay: NCI In Vivo Anticancer Drug Screen. Data for tumor model L1210 Leukemia (intraperitoneal) in B6D2F1 (BDF1) mice
Conditions: endpoint: mean survival time, higher = longer survival
Summary of the method: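 Transplanted-tumor mice were given test agent; controls received vehicle only. Survival readings from the two groups were divided (treated over control).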

[1] = dose: 100.0 mg/kg/injection, schedule: Q04DX003 (ip), vehicle: saline
[2] = dose: 200.0 mg/kg/injection, schedule: Q04DX003 (ip), vehicle: saline
[3] = dose: 100.0 mg/kg/injection, schedule: Q01DX001 (ip), vehicle: other
[4] = dose: 200.0 mg/kg/injection, schedule: Q01DX001 (ip), vehicle: other
[5] = dose: 400.0 mg/kg/injection, schedule: Q01DX001 (ip), vehicle: other

With BrC1=C(c2ccccc2)C2CCCCC2C1(Br)c1ccccc1 (configuration not stated) the T/C (dose: 100.0 mg/kg/injection, schedule: Q01DX009 (ip), vehicle: Klucel (hydroxypropylcellulose) (HPC)) was 103 % of control, the T/C (dose: 200.0 mg/kg/injection, schedule: Q01DX009 (ip), vehicle: Klucel (hydroxypropylcellulose) (HPC)) was 105 % of control and the T/C (dose: 400.0 mg/kg/injection, schedule: Q01DX009 (ip), vehicle: Klucel (hydroxypropylcellulose) (HPC)) was 114 % of control.

CC(C)N(C(=S)SSC(=S)N(C(C)C)C(C)C)C(C)C was tested, and the T/C (dose: 50.0 mg/kg/injection, schedule: Q01DX009 (ip), vehicle: saline with Tween-80) was 97 % of control, the T/C (dose: 100.0 mg/kg/injection, schedule: Q01DX009 (ip), vehicle: saline with Tween-80) was 101 % of control and the T/C (dose: 200.0 mg/kg/injection, schedule: Q01DX009 (ip), vehicle: saline with Tween-80) was 97 % of control.

With NNc1nncn1N the T/C (dose: 50.0 mg/kg/injection, schedule: Q01DX009 (ip), vehicle: saline) was 101 % of control, the T/C (dose: 100.0 mg/kg/injection, schedule: Q01DX009 (ip), vehicle: saline) was 102 % of control and the T/C [1] was 97 % of control. The T/C (dose: 200.0 mg/kg/injection, schedule: Q01DX009 (ip), vehicle: saline) was 103 % of control and the T/C [2] was 94 % of control.

For COc1ccccc1NC(=O)N(CCCl)N=O, the T/C (dose: 0.8 mg/kg/injection, schedule: Q01DX001 (ip), vehicle: carboxymethylcellulose (CMC)) was 110 % of control, the T/C (dose: 1.5 mg/kg/injection, schedule: Q01DX001 (ip), vehicle: carboxymethylcellulose (CMC)) was 106 % of control and the T/C (dose: 1.5 mg/kg/injection, schedule: Q01DX009 (ip), vehicle: carboxymethylcellulose (CMC)) was 97 % of control. The T/C (dose: 3.0 mg/kg/injection, schedule: Q01DX001 (ip), vehicle: carboxymethylcellulose (CMC)) was 108 % of control, the T/C (dose: 3.5 mg/kg/injection, schedule: Q01DX009 (ip), vehicle: carboxymethylcellulose (CMC)) was 118 % of control and 124 % of control and the T/C (dose: 5.3 mg/kg/injection, schedule: Q01DX009 (ip), vehicle: carboxymethylcellulose (CMC)) was 165 % of control. For the same compound, the T/C (dose: 6.0 mg/kg/injection, schedule: Q01DX001 (ip), vehicle: carboxymethylcellulose (CMC)) was 117 % of control, the T/C (dose: 8.0 mg/kg/injection, schedule: Q01DX009 (ip), vehicle: carboxymethylcellulose (CMC)) was 166 % of control and 236 % of control and the T/C (dose: 12.0 mg/kg/injection, schedule: Q01DX009 (ip), vehicle: carboxymethylcellulose (CMC)) was 214 % of control and 247 % of control. For the same compound, the T/C (dose: 18.0 mg/kg/injection, schedule: Q01DX009 (ip), vehicle: carboxymethylcellulose (CMC)) was 116 % of control and 123 % of control and the T/C (dose: 100.0 mg/kg/injection, schedule: Q01DX001 (ip), vehicle: carboxymethylcellulose (CMC)) was 100 % of control.

For Cc1ccc(S(=O)(=O)OC2CCCC2OS(=O)(=O)c2ccc(C)cc2)cc1 (configuration not stated), the T/C [3] was 96 % of control, the T/C [4] was 95 % of control and the T/C [5] was 91 % of control.

With COC(=O)/C=C\C(=O)O (tested in a mixture with another compound) the T/C (dose: 15.5 mg/kg/injection, schedule: Q#A X Z (oral), vehicle: carboxymethylcellulose (CMC)) was 98 % of control, the T/C (dose: 31.25 mg/kg/injection, schedule: Q#A X Z (ip), vehicle: carboxymethylcellulose (CMC)) was 101 % of control and the T/C (dose: 31.5 mg/kg/injection, schedule: Q#A X Z (oral), vehicle: carboxymethylcellulose (CMC)) was 100 % of control. For the same compound, the T/C (dose: 63.0 mg/kg/injection, schedule: Q#A X Z (oral), vehicle: carboxymethylcellulose (CMC)) was 100 % of control and the T/C (dose: 126.0 mg/kg/injection, schedule: Q#A X Z (oral), vehicle: carboxymethylcellulose (CMC)) was 100 % of control.

In the case of Cc1c(O)cc(O)cc1O, the T/C (dose: 100.0 mg/kg/injection, schedule: Q01DX001 (ip), vehicle: saline) is reported as 96 % of control and the T/C (dose: 200.0 mg/kg/injection, schedule: Q01DX001 (ip), vehicle: saline) is reported as 98 % of control.

For N=C(N)SCc1ccc(Cl)c(Cl)c1, the T/C (dose: 50.0 mg/kg/injection, schedule: Q01DX003 (ip), vehicle: Klucel (hydroxypropylcellulose) (HPC)) was 106 % of control, the T/C (dose: 100.0 mg/kg/injection, schedule: Q01DX003 (ip), vehicle: Klucel (hydroxypropylcellulose) (HPC)) was 101 % of control and the T/C [1] was 102 % of control. For the same compound, the T/C [2] was 89 % of control.

For C=C(C)C#CC(O)(C(=O)OCC)C1CCCCC1 (configuration not stated), the T/C [3] was 98 % of control, the T/C [4] was 109 % of control and the T/C [5] was 102 % of control.

COC(=O)C1CC2CCC1O2 (configuration not stated) was tested, and the T/C (dose: 100.0 mg/kg/injection, schedule: Q01DX009 (ip), vehicle: carboxymethylcellulose (CMC)) was 100 % of control, the T/C (dose: 200.0 mg/kg/injection, schedule: Q01DX009 (ip), vehicle: carboxymethylcellulose (CMC)) was 98 % of control and the T/C (dose: 400.0 mg/kg/injection, schedule: Q01DX009 (ip), vehicle: carboxymethylcellulose (CMC)) was 94 % of control.
